# Structures can show the parent of a compound that is named as a salt.
# Molecular target: TAFIa (Homo sapiens (Human), UniProt Q96IY4)
# Test: Determination of TAFIa enzyme inhibitory activity (FAAK substrate degradation)
# Format: biochemical
# Conditions: TAFI activated with human thrombin / rabbit lung thrombomodulin; substrate FAAK, absorbance at 330 nm; read-out: TAFIa IC50
# Experimental: Determination of TAFIa Enzyme Inhibitory Activity
# HEPES buffered saline (20 mM HEPES, 150 mM NaCl, pH 7.4; hereinafter, referred to as HBS) was used in the preparation of a reaction solution. To 12 μL of a 250 μg/mL TAFI solution, 30 μL of an HBS solution containing 4 U/mL human thrombin, 12 U/mL rabbit lung thrombomodulin, and 12 mM CaCl2 was added, and the mixture was gently stirred. Then, TAFI was activated at room temperature. Ten minutes later, thrombin was neutralized by the addition of 10 μL of 100 μM PPACK (thrombin inhibitor) to terminate the activation of TAFI. The formed TAFIa was stored in ice and diluted immediately before use in determination with 2050 μL of an HBS solution containing BSA (bovine serum albumin) adjusted to 0.1% in terms of the final concentration.
# (2) Determination of TAFIa Inhibitory Activity
# A test substance was dissolved in HBS to prepare a 10-fold dilution series of evaluation concentrations. 80 μL of the TAFIa solution and 10 μL of the test substance were added to each well of a 96-well plate and mixed by shaking for 10 minutes. 10 μL of furylacryloyl-alanyl-lysine (FAAK) adjusted to 5 mg/mL was added to each well, and the change in the absorbance of this mixed solution at 330 nm was read for 30 minutes to determine the degradation rate of the substrate.
# (3) Calculation of Inhibitory Activity IC50
# The degradation rate of the substrate in each well was applied to a standard curve prepared using the dilution series of the TAFIa solution to calculate TAFIa activity.
# Sequence of TAFIa (Q96IY4 115-423): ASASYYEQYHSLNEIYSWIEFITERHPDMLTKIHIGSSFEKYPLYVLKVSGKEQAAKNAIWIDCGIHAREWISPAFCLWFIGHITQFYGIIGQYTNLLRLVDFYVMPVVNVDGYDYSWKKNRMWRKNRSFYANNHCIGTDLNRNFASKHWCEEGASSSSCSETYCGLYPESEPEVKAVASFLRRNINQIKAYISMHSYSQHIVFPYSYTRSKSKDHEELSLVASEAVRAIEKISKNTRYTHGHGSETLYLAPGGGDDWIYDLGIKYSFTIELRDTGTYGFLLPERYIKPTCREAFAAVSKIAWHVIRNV
row,IC50 [µM],SMILES
1,0.054,"NCCC[C@H]1C[C@]1(C(=O)O)c1cn(-c2cccc3ccccc23)cn1 (relative stereo) [Example 47, (1R*,2S*)-2-(3-Aminopropyl)-1-[1-(1-naphthyl)-1H-imidazol-4-yl]cyclopropanecarboxylic acid]"
2,0.042,"Cc1ccc(-n2cnc([C@@]3(C(=O)O)C[C@@H]3CCCN)c2)cc1C (relative stereo) [Example 10, (1R*,2S*)-2-(3-Aminopropyl)-1-[1-(3,4-dimethylphenyl)-1H-imidazol-4-yl]cyclopropanecarboxylic acid]"
3,0.037,"Cc1cccc(-n2cnc([C@@]3(C(=O)O)C[C@@H]3CCCN)c2)c1 (relative stereo) [Example 8, (1R*,2S*)-2-(3-Aminopropyl)-1-[1-(3-methylphenyl)-1H-imidazol-4-yl]cyclopropanecarboxylic acid]"
4,0.097,"CCCn1cnc([C@@]2(C(=O)O)C[C@@H]2CCCN)c1 (relative stereo) [Example 3, (1R*,2S*)-2-(3-Aminopropyl)-1-(1-propyl-1H-imidazol-4-yl)cyclopropanecarboxylic acid]"
5,0.014,"C[C@@H](CN)C[C@H]1C[C@]1(C(=O)O)c1cn(-c2ccccc2)cn1 [Example 50, (1R,2S)-2-[(2R)-3-Amino-2-methylpropyl]-1-(1-phenyl-1H-imidazol-4-yl)cyclopropanecarboxylic acid]"
6,0.016,"Cc1ccc(-n2cnc([C@@]3(C(=O)O)C[C@@H]3CCCN)c2)cc1 (relative stereo) [Example 7, (1R*,2S*)-2-(3-Aminopropyl)-1-[1-(4-methylphenyl)-1H-imidazol-4-yl]cyclopropanecarboxylic acid]"
7,0.1,"NCCC[C@H]1C[C@]1(C(=O)O)c1cn(-c2cccs2)cn1 (relative stereo) [Example 37, (1R*,2S*)-2-(3-Aminopropyl)-1-[1-(2-thienyl)-1H-imidazol-4-yl]cyclopropanecarboxylic acid dihydrochloride]"
8,0.039,"Cc1ccc(-n2cnc([C@@]3(C(=O)O)C[C@@H]3CC(C)CN)c2)cc1 (relative stereo) [Example 33, (1R*,2S*)-2-(3-Amino-2-methylpropyl)-1-[1-(4-methylphenyl)-1H-imidazol-4-yl]cyclopropanecarboxylic acid]"
9,> 0.3,"Cc1ccccc1-n1cnc([C@@]2(C(=O)O)C[C@@H]2CCCN)c1 (relative stereo) [Example 9, (1R*,2S*)-2-(3-Aminopropyl)-1-[1-(2-methylphenyl)-1H-imidazol-4-yl]cyclopropanecarboxylic acid]"
10,0.03,"NCCC[C@H]1C[C@]1(C(=O)O)c1cn(-c2ncccn2)cn1 (relative stereo) [Example 39, (1R*,2S*)-2-(3-Aminopropyl)-1-(1-pyrimidin-2-yl-1H-imidazol-4-yl)cyclopropanecarboxylic acid]"
11,0.098,"NCCC[C@H]1C[C@]1(C(=O)O)c1cn(-c2cccnc2)cn1 (relative stereo) [Example 24, (1R*,2S*)-2-(3-Aminopropyl)-1-(1-pyridin-3-yl-1H-imidazol-4-yl)cyclopropanecarboxylic acid]"
12,0.026,"NCCC[C@H]1C[C@]1(C(=O)O)c1cn(-c2ccc3occc3c2)cn1 (relative stereo) [Example 43, (1R*,2S*)-2-(3-Aminopropyl)-1-[1-(1-benzofuran-5-yl)-1H-imidazol-4-yl]cyclopropanecarboxylic acid]"
13,0.052,"NCCC[C@H]1C[C@]1(C(=O)O)c1cn(-c2ccc(Oc3ccccc3)cc2)cn1 (relative stereo) [Example 16, (1R*,2S*)-2-(3-Aminopropyl)-1-[1-(4-phenoxyphenyl)-1H-imidazol-4-yl]cyclopropanecarboxylic acid]"
14,> 0.1,"CC(C)(C)CCn1cnc([C@]2(C(=O)O)C[C@H]2CCCN)c1 [Example 27, (1S,2R)-2-(3-Aminopropyl)-1-[1-(3,3-dimethylbutyl)-1H-imidazol-4-yl]cyclopropanecarboxylic acid]"
15,0.036,"CC(CCN)[C@H]1C[C@]1(C(=O)O)c1cn(-c2ccccc2)cn1 (relative stereo) [Example 36, (1R*,2R*)-2-(3-Amino-1-methylpropyl)-1-(1-phenyl-1H-imidazol-4-yl)cyclopropanecarboxylic acid]"
16,0.035,"CC(CN)C[C@H]1C[C@]1(C(=O)O)c1cn(-c2ccccc2)cn1 (relative stereo) [Example 32, (1R*,2S*)-2-(3-Amino-2-methylpropyl)-1-(1-phenyl-1H-imidazol-4-yl)cyclopropanecarboxylic acid]"
17,0.031,"CCc1ccc(-n2cnc([C@@]3(C(=O)O)C[C@@H]3CCCN)c2)cc1 (relative stereo) [Example 11, (1R*,2S*)-2-(3-Aminopropyl)-1-[1-(4-ethylphenyl)-1H-imidazol-4-yl]cyclopropanecarboxylic acid]"
18,0.019,"Cc1ccnc(-n2cnc([C@@]3(C(=O)O)C[C@@H]3CCCN)c2)c1 (relative stereo) [Example 64, (1R*,2S*)-2-(3-Aminopropyl)-1-[1-(4-methylpyridin-2-yl)-1H-imidazol-4-yl]cyclopropanecarboxylic acid]"
19,0.029,"N#Cc1ccc(-n2cnc([C@@]3(C(=O)O)C[C@@H]3CCCN)c2)cc1 (relative stereo) [Example 40, (1R*,2S*)-2-(3-Aminopropyl)-1-[1-(4-cyanophenyl)-1H-imidazol-4-yl]cyclopropanecarboxylic acid]"
20,0.025,"NCCC[C@H]1C[C@]1(C(=O)O)c1cn(-c2ccc(Cl)cc2)cn1 (relative stereo) [Example 18, (1R*,2S*)-2-(3-Aminopropyl)-1-[1-(4-chlorophenyl)-1H-imidazol-4-yl]cyclopropanecarboxylic acid]"
21,10,"CCOC(=O)[C@]1(c2cn(-c3ccc(C)cc3)cn2)C[C@@H]1CCCN (relative stereo) [Example 26, Ethyl (1R*,2S*)-2-(3-aminopropyl)-1-[1-(4-methylphenyl)-1H-imidazol-4-yl]cyclopropanecarboxylate hydrochloride]"
22,0.021,"NCCC[C@H]1C[C@]1(C(=O)O)c1cn(-c2ccc(F)cc2)cn1 (relative stereo) [Example 15, (1R*,2S*)-2-(3-Aminopropyl)-1-[1-(4-fluorophenyl)-1H-imidazol-4-yl]cyclopropanecarboxylic acid]"

row,SMILES,IC50 [µM]
1,"NCCC[C@H]1C[C@]1(C(=O)O)c1cn(-c2ccccn2)cn1 (relative stereo) [Example 25, (1R*,2S*)-2-(3-Aminopropyl)-1-(1-pyridin-2-yl-1H-imidazol-4-yl)cyclopropanecarboxylic acid]",0.029
2,"NCCC[C@H]1C[C@]1(C(=O)O)c1cn(-c2ccccc2)cn1 [Example 30, (1R,2S)-2-(3-Aminopropyl)-1-(1-phenyl-1H-imidazol-4-yl)cyclopropanecarboxylic acid]",0.013
3,"C[C@@H](CN)C[C@@H]1C[C@@]1(C(=O)O)c1cn(-c2ccccn2)cn1 [Example 55, (1S,2R)-2-[(2R)-3-Amino-2-methylpropyl]-1-(1-pyridin-2-yl-1H-imidazol-4-yl]cyclopropanecarboxylic acid]",> 3
4,"CC[C@@H](CN)C[C@H]1C[C@]1(C(=O)O)c1cn(-c2ccccn2)cn1 [Example 60, (1R,2S)-2-[(2R)-2-(Aminomethyl)butyl]-1-(1-pyridin-2-yl-1H-imidazol-4-yl)cyclopropanecarboxylic acid]",0.0083
5,"C[C@H](CCN)C1CC1(C(=O)O)c1cn(-c2ccccn2)cn1 (stereo partly drawn) [Example 68, 2-[(2R)-4-Aminobutane-2-yl]-1-[1-(pyridin-2-yl)-1H-imidazol-4-yl)cyclopropanecarboxylic acid]",0.012
6,"CC[C@@H](CN)C[C@@H]1C[C@@]1(C(=O)O)c1cn(-c2ccccn2)cn1 [Example 61, (1S,2R)-2-[(2R)-2-(Aminomethyl)butyl]-1-(1-pyridin-2-yl-1H-imidazol-4-yl)cyclopropanecarboxylic acid]",0.36
7,"C[C@H](CN)C[C@@H]1C[C@@]1(C(=O)O)c1cn(-c2ccccn2)cn1 [Example 57, (1S,2R)-2-[(2S)-3-Amino-2-methylpropyl]-1-(1-pyridin-2-yl-1H-imidazol-4-yl]cyclopropanecarboxylic acid]",0.49

# Same assay, conditions: TAFIa IC50
row,IC50 [µM],SMILES
1,0.42,"CC(C)(C)CCn1cnc(C2(C(=O)O)CC2CCCN)c1 (single isomer, unassigned) [Example 2, (1R*,2R*)-2-(3-Aminopropyl)-1-[1-(3,3-dimethylbutyl)-1H-imidazol-4-yl]cyclopropanecarboxylic acid]"

# Same assay, conditions: read-out: TAFIa IC50
row,SMILES,IC50 [µM]
1,"CCC(CN)CC1C[C@]1(C(=O)O)c1cn(-c2ccccc2)cn1 (stereo partly drawn) [Example 53, (1R,2S)-2-[(2-Aminomethyl)butyl]-1-(1-phenyl-1H-imidazol-4-yl]cyclopropanecarboxylic acid]",0.013
2,"CCC[C@@H](CN)C[C@@H]1C[C@@]1(C(=O)O)c1cn(-c2ccccn2)cn1 [Example 67, (1S,2R)-2-[(2R)-2-(Aminomethyl)pentyl]-1-(1-pyridin-2-yl-1H-imidazol-4-yl)cyclopropanecarboxylic acid]",> 0.1

# — patent US9662310B2, “Cyclopropanecarboxylic acid derivative” (DAIICHI SANKYO COMPANY, LIMITED, priority 2010, dated 2017)
